Source: patent publication US20260216197A1, “WRN HELICASE INHIBITOR” (SUZHOU PUHE BIOPHARMA CO., LTD., priority 2022, published 2026)

Key:
[1] = Liver microsome stability test; assay type: in vitro ADME; settings: human liver microsomes 0.5 mg/mL, compound 1 μM, NADPH 1 mM, 60 minutes
Protocol: The liver microsome stability test of the compounds is as follows:
The compounds of the present disclosure were subjected to a liver microsome stability test. The compounds to be tested were co-incubated with liver microsomes of different species with or without the addition of NADPH. The final concentration of the compounds to be tested in the test system was 1 μM, the final concentration of NADPH was 1 mM, and the final concentration of liver microsomes was 0.5 mg/mL.

[2] = tested on: MSS colorectal cancer HT-29 cell line; assay: 2D anti-proliferative activity, MSS HT-29 cells (CTG, 5 days); assay type: cell-based
Protocol: The molecules of the present disclosure were tested for their anti-proliferative activity against MSS tumor cells.
(§1) The MSS HT-29 colorectal cancer cells were cultured in McCoy's 5A medium containing 10% FBS and 1% penicillin-streptomycin in a 37° C., 5% CO2 constant temperature incubator. A 40 μL cell suspension was added to each well of a 384-well microplate. Using Echo, 40 nL of compounds at different concentrations was dispensed into each well, followed by incubation in a 37° C., 5% CO2 constant temperature incubator for 5 days. Then, 40 μL of CTG solution (Promega, Cat No. G7573) was added to each well, and the plate was incubated in the dark in a 37° C., 5% CO2 constant temperature incubator for 30 minutes. Luminescence was measured using an Envision multi-function microplate reader (Perkin Elmer, Model: Envision 2104). The luminescent signal was proportional to the amount of ATP in the system, and the amount of ATP directly represented the number of living cells in the system.

[3] = Pharmacokinetic evaluation in mice; assay type: in vivo, CD1 female mice
Protocol: CD1 female mice were used as test animals and the drug was administered orally/intravenously (oral dosage: 10 mg/kg, intravenous dosage: 2 mg/kg).
Assay protocol: The oral group consisted of 3 mice per group (vehicle: 10% Hβ-CD-pH7.4), and the intravenous group consisted of 3 mice per group. […] The blood concentrations in plasma after oral and intravenous administration of mice were determined by LC/MS/MS, respectively.

[4] = biological target: WRN helicase (Homo sapiens, UniProt Q14191); assay: WRN helicase hydrolysis/unwinding of double-stranded DNA (fluorescence); assay type: biochemical
Chain of WRN helicase (Q14191 whole entry): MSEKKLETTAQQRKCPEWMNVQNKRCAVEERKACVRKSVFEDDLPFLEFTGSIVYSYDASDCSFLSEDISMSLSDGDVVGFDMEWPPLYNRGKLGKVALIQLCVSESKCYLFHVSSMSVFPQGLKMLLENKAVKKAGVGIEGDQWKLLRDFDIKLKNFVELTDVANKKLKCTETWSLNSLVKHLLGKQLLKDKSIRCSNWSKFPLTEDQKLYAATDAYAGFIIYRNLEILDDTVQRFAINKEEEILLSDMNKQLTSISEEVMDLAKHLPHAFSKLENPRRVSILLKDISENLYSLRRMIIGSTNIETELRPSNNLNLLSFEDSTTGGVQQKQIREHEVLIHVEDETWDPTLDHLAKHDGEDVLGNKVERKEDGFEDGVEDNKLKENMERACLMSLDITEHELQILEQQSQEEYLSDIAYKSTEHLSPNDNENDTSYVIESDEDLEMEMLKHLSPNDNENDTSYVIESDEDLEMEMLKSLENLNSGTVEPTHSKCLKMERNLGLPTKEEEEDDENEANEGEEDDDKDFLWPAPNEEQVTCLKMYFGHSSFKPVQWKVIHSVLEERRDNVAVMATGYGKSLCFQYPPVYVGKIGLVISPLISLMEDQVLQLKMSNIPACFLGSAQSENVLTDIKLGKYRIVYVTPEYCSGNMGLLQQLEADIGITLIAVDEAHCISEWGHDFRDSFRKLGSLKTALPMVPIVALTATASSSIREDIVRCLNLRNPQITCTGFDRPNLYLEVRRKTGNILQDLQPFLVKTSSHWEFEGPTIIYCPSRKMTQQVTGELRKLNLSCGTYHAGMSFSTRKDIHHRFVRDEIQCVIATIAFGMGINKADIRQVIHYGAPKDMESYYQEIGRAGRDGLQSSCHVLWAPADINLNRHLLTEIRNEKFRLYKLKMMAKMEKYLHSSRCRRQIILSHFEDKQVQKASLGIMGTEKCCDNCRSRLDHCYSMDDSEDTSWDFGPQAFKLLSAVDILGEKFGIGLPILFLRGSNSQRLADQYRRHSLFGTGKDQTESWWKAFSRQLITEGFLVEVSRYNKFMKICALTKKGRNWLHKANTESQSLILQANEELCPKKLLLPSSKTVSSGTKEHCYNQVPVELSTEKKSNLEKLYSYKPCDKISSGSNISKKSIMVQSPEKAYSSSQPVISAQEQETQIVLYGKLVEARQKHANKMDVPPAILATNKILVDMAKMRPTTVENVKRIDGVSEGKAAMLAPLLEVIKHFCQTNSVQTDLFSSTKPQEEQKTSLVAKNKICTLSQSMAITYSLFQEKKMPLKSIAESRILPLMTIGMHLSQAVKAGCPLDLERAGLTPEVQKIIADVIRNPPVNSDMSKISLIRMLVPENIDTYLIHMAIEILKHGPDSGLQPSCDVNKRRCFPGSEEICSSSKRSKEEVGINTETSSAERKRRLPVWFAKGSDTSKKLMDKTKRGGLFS
Protocol: The activity of the molecules of the present disclosure on the hydrolysis of double-stranded PP-6TR DNA by WRN helicase was tested.
The working solution and buffer were prepared, and the test compound was dissolved in DMSO followed by a4-fold dilution (with a final concentration of 10 μM as the starting concentration). Then, 0.2 μL of the test compound solution was added to a384-well plate, followed by 10 μL of (2×) WRN enzyme solution. The mixture was incubated in the dark for 30 minutes, after which 10 μL of substrate detection solution containing double-stranded DNA was added to initiate the reaction (DNA length: 19 bp, labeled with TAMRA at the 3′ end and BHQ2 at the 5′ end). The mixture was incubated at room temperature for 60 minutes. The inhibitory activity (IC50) against the WRN enzyme was calculated based on the fluorescence change (Ex530/Em590) between the blank group (DMSO) and the compound group.

[5] = tested on: SW 48 (MSI-H) colorectal cancer cells; assay: In vivo pharmacodynamic assay, SW48 xenograft in nude mice; set-up: species or system BALB/c nude mice; settings: 120 mg/kg, QD, oral
Protocol: In vivo pharmacodynamic assay in BALB/c nude mice. Details are as follows:
SW 48 (MSI-H) colorectal cancer cells were cultured (L15 medium with 10% fetal bovine serum), and then inoculated into 6-8-week old female BALB/c nude mice (weighing about 20 g), wherein all mice were inoculated subcutaneously. The mice were cultured in an SPF-grade experimental environment, and all mice had free access to commercially certified standard diets. When the average tumor volume of the mice grew to about 150 mm^3, the test compound was orally administered daily. The dosage was as follows: blank group vehicle (10% HP-β-CD aqueous solution, pH-7). The dosage of the administration group was 120 mg/kg, 50 mg/kg, or 20 mg/kg, once a day. The tumor volume was measured with a two-dimensional caliper three times a week, and the animals were weighed every day. […] The tumor volume was calculated using the formula: V=½a*b^2, where a represents the long diameter of the tumor, and b represents the short diameter of the tumor.

[6] = tested on: MSI-H colorectal cancer SW48 cell line; assay: 2D anti-proliferative activity, MSI-H SW48 cells (CTG, 5 days); assay type: cell-based
Protocol: The molecules of the present disclosure were tested for their anti-proliferative activity against MSI-H tumor cells.
The proliferation of tumor cells with microsatellite instability MSI-H is sensitive to WRN inhibitors, while the proliferation of microsatellite stable (MSS) tumor cells is insensitive to WRN inhibitors. By testing the activities of the two, it is shown that the molecules of the present disclosure have an inhibitory and synthetic lethal effect on WRN at the cellular level.
as §1, with “MSI-unstable SW48” for “MSS HT-29”, “RPMI 1640” for “McCoy's 5A”

Human Clint μL/min/mg Protein [1]: 14.8 μL/min/mg Protein
Human Clint/(mL/min/kg) [1]: 18.5 mL/min/kg
IC50 [2]: > 10000 nM
in vivo exposure compared with reference molecule A1 [3]: higher in vivo exposure
AUC0-24 ([3]; IV 2 mg/kg): 1421 ng·h/mL
C0 ([3]; IV 2 mg/kg): 3299 ng/mL
Cl ([3]; IV 2 mg/kg): 23.4 mL/min/kg
T1/2 ([3]; IV 2 mg/kg): 1.6 h
AUC0-24 ([3]; PO 10 mg/kg): 5599 ng·h/mL
Cmax ([3]; PO 10 mg/kg): 4645 ng/mL
T1/2 ([3]; PO 10 mg/kg): 1.2 h
Tmax ([3]; PO 10 mg/kg): 0.5 h
F ([3]; PO 10 mg/kg vs IV 2 mg/kg): 79%
IC50 [4]: 1.5 nM
IC50 ([6]; 5 days): 55 nM
SMILES: CCc1c(N2CCN(C(=O)c3ncnc(C)c3O)CC2)c(=O)n2nc(C3=CCOCC3)nc2n1CC(=O)Nc1ccc(C(F)(F)F)c2ccsc12 [Compound H1]
TGI [5]: 105%
Tumor volume (mm^3)-D 1 ([5]; day 1): 171 mm^3
Tumor volume (mm^3)-D 21 ([5]; day 21): 28 mm^3
Average value/ Inhibition rate ([6]; 0.038146973 nM): −7.8792
Test 1/ Inhibition rate ([6]; 0.038146973 nM): −7.3699
Test 2/ Inhibition rate ([6]; 0.038146973 nM): −8.3885
Average value/ Inhibition rate ([6]; 0.152587891 nM): −7.2326
Test 1/ Inhibition rate ([6]; 0.152587891 nM): −8.9847
Test 2/ Inhibition rate ([6]; 0.152587891 nM): −5.4804
Average value/ Inhibition rate ([6]; 0.610351563 nM): −7.2423
Test 1/ Inhibition rate ([6]; 0.610351563 nM): −8.9821
Test 2/ Inhibition rate ([6]; 0.610351563 nM): −5.5025
Average value/ Inhibition rate ([6]; 2.44140625 nM): −1.2893
Test 1/ Inhibition rate ([6]; 2.44140625 nM): −5.0894
Test 2/ Inhibition rate ([6]; 2.44140625 nM): 2.5108
Average value/ Inhibition rate ([6]; 9.765625 nM): −9.8115
Test 1/ Inhibition rate ([6]; 9.765625 nM): −9.6799
Test 2/ Inhibition rate ([6]; 9.765625 nM): −9.9432
inhibitory activity on SW48 cells ([6]; 39 nM): high inhibitory activity
Average value/ Inhibition rate ([6]; 39.0625 nM): 12.6131
Test 1/ Inhibition rate ([6]; 39.0625 nM): 9.3323
Test 2/ Inhibition rate ([6]; 39.0625 nM): 15.8938
Average value/ Inhibition rate ([6]; 156.25 nM): 98.3044
Test 1/ Inhibition rate ([6]; 156.25 nM): 98.4846
Test 2/ Inhibition rate ([6]; 156.25 nM): 98.1243
Average value/ Inhibition rate ([6]; 625 nM): 98.5020
Test 1/ Inhibition rate ([6]; 625 nM): 98.3268
Test 2/ Inhibition rate ([6]; 625 nM): 98.6771
Average value/ Inhibition rate ([6]; 2500 nM): 99.9213
Test 1/ Inhibition rate ([6]; 2500 nM): 99.6262
Test 2/ Inhibition rate ([6]; 2500 nM): 100.2164
Average value/ Inhibition rate ([6]; 10000 nM): 100.6963
Test 1/ Inhibition rate ([6]; 10000 nM): 100.7430
Test 2/ Inhibition rate ([6]; 10000 nM): 100.6495
